Assay results from patent publication US5500358A, “Antibody catalysis of cyclohexadienone rearrangments” (The Scripps Research Institute, priority 1994, dated 1996).

Test system: catalytic monoclonal antibody 62C7 (anti-13.3), secreted by hybridoma 62C7, ATCC HB11703
Test: Antibody-catalyzed dienone-phenol rearrangement of 7 to 8, product formation followed by reverse-phase HPLC
Type: biochemical, Balb/c mice
Experimental: The KLH conjugates of haptens 13.3, 13.4, and 13.5 were then employed to inoculate Balb/c mice and antibodies were generated by standard protocols. (G. Kohler et al. Nature (1975), vol. 265, page 495.) Monoclonal antibodies were purified from ascites fluid by anion exchange chromatography and assayed against substrate 7 for production of the phenol product 8. Fourteen anti-13.3, twenty two anti-13.4, and twenty one anti-13.5 antibodies were assayed for catalysis of the rearrangement reaction converting dienone substrate 7 to phenol product 8. […] Assay condition employed […] in 100 mM NaCl, 50 mM of either bistris(bis(hydroxyethyl)-tris(hydroxymethyl)aminomethane) or 1,3-bis[tris (hydroxymethyl)aminopropane at 37° C. Product formation was followed by reverse-phase HPLC (Vydac C-18 218TP54 column (0.45×22 cm) at a flow rate of 1.5 milliliters/minute using 28% CH3 CN and 72% H2 O+0.1% CF3 COOH. Retention time tR for substrate 7 was 5.02 minutes. Retention time tR for product 8 was 7.14 minutes. The pD (98%) D2 O) values were obtained by adding 0.4 to the pH-electrode reading. […] Antibody 62C7 (anti-13.3) was characterized in detail.
FIG. 3 illustrates the pH-profile of the rearrangement reaction in the presence of catalytic antibody 62C7 (anti-13.3) and without. Background rates are determined in H2 O and in D2 O. The lines are caluclated from the following equations respectively:
kcat =kcat °+kcatH -[H3 O^30 ]^0.92 ;
kH2O =k°+kH +[H3 O^30 ]; kD2O
Accordingly, FIG. 3 illustrates both the antibody 62C7 catalyzed and the background reactions proceed via a hydronium ion catalyzed pathway, viz. kcatH+ =0.176/Mole second, H+ =1.51×10^-3 /Mole second. […] This is consistent with pre-equilibrium protonation of substrate 7 to form a first intermediate 10. This reaction probably reflects the spontaneous rearrangement of substrate 7 to the conjugate base of a second intermediate 12. This rearrangement reaction probably also occurs when substrate 7 is complexed with anti-13.3, i.e., second intermediate 12 is formed within the antibody complex. Importantly, a small inverse secondary isotope effect is observed in all cases at position C(3) of the dienone, viz., kcatH /kCatD =0.88 at pH=5.75, kH /kD =0.88-0.94 from pH=2.95 to 9.54. […] Accordingly, the rate determining step is the […]. (V. Vitullo et al., J. Am. Chem. Soc. (1974), vol. 94, page 3844.) Although this carbon hydrogen bond is ultimately broken to yield the product phenol 8, it is not involved in the rate determining step as this would have given rise to a large, normal isotope effect at that position.

[1] = pH 5.75, 37° C., 100 mM NaCl, 50 mM buffer

Row | Km [1] | Km (in D2O, pD 7.07, 37° C.) | Km (pH 7.07, 37° C., H2O) | Structure (SMILES) | kcat (pH 5.75, 37° C.) | kcat / kuncat (pH 5.75, 37° C.) | kcatH+ (hydronium ion catalyzed pathway of the antibody reaction) (from pH-profile, FIG. 3) | kcat (in D2O, pD 7.07, 37° C.) | kcat / kuncat (in D2O, pD 7.07, 37° C.) | kcat (pH 7.07, 37° C., H2O) | kcat / kuncat (pH 7.07, 37° C., H2O) | kcatH /kCatD (secondary isotope effect at position C(3) of the dienone) (pH=5.75, 7 versus 7-d2)
1 | 770 µM |  |  | [2H]C1=C(C)C(=O)C(C)=C([2H])C1(Cc1ccc(C(=O)NCCO)cc1)OC [Compound 7-d2] | 1.37e-06 s⁻¹ | 80 |  |  |  |  |  | 
2 | 670 µM | 1300 µM | 1200 µM | COC1(Cc2ccc(C(=O)NCCO)cc2)C=C(C)C(=O)C(C)=C1 [Compound 7] | 1.22e-06 s⁻¹ | 80 | 0.176 mol⁻¹ s⁻¹ | 1.25e-06 s⁻¹ | 95 | 1.25e-06 s⁻¹ | 90 | 0.88
